According to patent publication US7892830B2, “Clonal culture of human pluripotent stem cells” (Wisconsin Alumni Research Foundation, priority 2007, dated 2011):
Counter-ions that a name gives are not always drawn.

Key:
[1] = tested on: H1 human ES cells; assay: 6-well cloning efficiency assay in TeSR1 medium on Matrigel, colonies counted manually; format: cell-based; conditions: for max. CE (%): cloning efficiency = CFU per number of plated single cells; for confirmation in 6-well assay as active in increasing cloning efficiency: 6-well plates, varying concentrations
Source text: As described above, a difficulty in growing pluripotent cells, like ES cells, in culture is their low cloning efficiency. As used herein, “cloning efficiency” means a number of cells individualized by trypsin that form new ES cell colonies divided by the number of individual cells plated in a well of a culture dish. In our prior experience with growing human ES cells in defined and animal-free conditions on a matrix (e.g., Matrigel®), cloning efficiency was very low (i.e., less than 0.1%). This contrasts with prior experience using culture systems based on medium conditioned by exposure to fibroblasts, where the cloning efficiency, while still low (i.e., less than 2%), was high enough to initiate clonal ES cell colonies. As disclosed herein, the addition of a small molecule to the culture medium in which human ES cells are grown permits the ES cell cultures to be clonally cultivated in a manner that is extremely difficult without the addition of the small molecule. Several small molecules are exemplified herein for this purpose.
For these assays, 10,000 cells per well were plated on Matrigel®—coated plates and then treated every other day for a total of four days. with the small molecules as described above. To evaluate the effect of the tested small molecules on cloning efficiency, we manually counted colonies after 10 days.
We determined cloning efficiency (CE; the number of colony forming units (CFU) per number of plated single cells, trypsin/EDTA treated). HA-100 was the first molecule identified in the small molecule screen, following which other structurally similar small molecules were also tested for cloning efficiency.

[2] = tested on: PKC; conditions: cited from earlier work
[3] = tested on: PKA; conditions: cited from earlier work
[4] = tested on: PKG; conditions: cited from earlier work
[5] = tested on: H1 human ES cells; assay: Example 2 colony formation with ROCK inhibitors, ALP assay and examination by eye; format: cell-based; conditions: for concentration showing the most colony formation with the ALP assay: tested 5 nM to 20 μM, TeSR1, Matrigel
Protocol: The experiments described in Example 1 were repeated with H-1152 (EMD Chemicals, Inc./Calbiochem; San Diego, Calif.) and Y-27632 (EMD Chemicals, Inc./Calbiochem). Briefly, H-1152 or Y-27632 was dissolved in DMSO to a concentration of 20 mM. H1 human ES cells were grown on Matrigel®—coated plates in TeSR™1 medium at a density of 100,000 cells per ml. H-1152 and Y-27632 were added to wells on their own plates at a final concentration of 20 μM, 15 μM, 10 μM or 5 μM in DMSO. DMSO and HA-100 (10 μM) were used as the negative and positive controls, respectively. The plates were treated every other day for a total of four days. Colony formation was detected with the ALP assay described above.
In a second experiment, H-1152 and Y-27632 were added to wells on their own plates at a final concentration of 5 μM, 500 nM, 50 nM or 5 nM in DMSO. DMSO and HA-100 (10 μM) were used as the negative and positive controls, respectively. The plates were treated as described above.

[6] = tested on: human ES cells; assay: Cloning efficiency in unconditioned medium with added bFGF; format: cell-based; conditions: unconditioned medium with 100 ng/μl bFGF, compared to control cultures lacking HA-100
Protocol: (§1) We have also tested these small molecules for effects on human ES cell cloning on other medium. We tested the effect on conditioned medium (CM) substituting TeSR™1 medium with CM and otherwise identical treatment. The cloning efficiency of the medium increased with addition of HA-100. In addition, we performed a similar test with unconditioned medium to which 100 ng/μl of bFGF had been added.

[7] = tested on: Oct4; assay: Oct4 immunofluorescence of cloned colonies; format: cell-based, human; conditions: colonies from HA-100 treatment
Source text: We also tested the resulting colonies from HA-100 treatment for the presence of Oct4, an intracellular marker for pluripotent ES cells.

[8] = tested on: H1 human ES cells; assay: Fluorometric high-throughput ALP (DiFMUP) screen for colony formation, 96-well; format: cell-based; conditions: 10 μM, 500 cells per well, TeSR1, a typical hit read above 200,000
Protocol: The screen was conducted using a fluorescent, high-throughput assay to screen small molecules for their ability to enhance cloning efficiency. A soluble, non-fluorescent substrate (6,8-difluoro-4-methylumbelliferyl phosphate, DiFMUP) was converted to a fluorescent product by an enzyme specific for undifferentiated, human ES cells called alkaline phosphatase (ALP).
In wells that had colonies larger than 2,000 cells, and which formed 12 days after seeding 500 individualized human ES cells in a 96-well plate, increased fluorescence from DiFMUP hydrolyzed by ALP indicated any well that contained a compound that enabled colony formation. […] Thus, this assay tested both for clonal propagation and for maintenance of undifferentiated status.
The screen used a small molecule library made up of characterized compounds with known bioactivity that was purchased from Sigma-Aldrich (St. Louis, Mo.). Members of the library were dissolved in DMSO to a concentration of 1 mM. All other chemicals used were purchased from Sigma, unless otherwise indicated in the text. H1 human ES cells (WiCell Research Institute; Madison, Wis.) were grown in the defined TeSR™1 medium, which was prepared as described in Ludwig et al., supra.
The assay was performed at the Keck-UWCCC Small Molecule Screening Facility (University of Wisconsin—Madison; Madison, Wis.) in 96-well microplates (Nunclon/Nunc; Roskilde, Denmark) using a Beckman Biomek® FX Laboratory Workstation and a Perkin Elmer VictorIII® Plate Reader. The microplates were coated with Matrigel® (#354230, growth factor reduced; BD Bioscience; San Jose, Calif.) at 0.3 mg/ml in DMEM/F12 (Invitrogen; Carlsbad, Calif.) for 1 hour at room temperature.
H1 human ES cells were grown in 6-well Nunclon® dishes to day 5, and then treated with 1 ml Trypsin/EDTA (Invitrogen) containing 1% chick serum for 5 minutes at 37° C. Trypsin was quenched with 20% FBS in DMEM/F12, and the cells were collected by centrifugation for 1.5 minutes at 200 RCF. After aspiration of the medium, cells were re-suspended in TeSR™1 medium to a density of 5,000 cells per ml. Of this cell suspension, 100 μL was dispensed into each well, and 1 μL of a […] DMSO solution of inhibitor was added and mixed by pipetting, resulting in a final inhibitor concentration of 10 μM. The plates were incubated at 5% CO2 at 37° C. for 2 days. Then, the medium was exchanged with TeSR™1 medium not having the cloning molecule. […]
To detect colony formation, we used a fluorometric, ALP assay (EnzChek®; Invitrogen). […] In wells that had colonies, increased fluorescence indicated any well containing a compound that led to colony formation. […] Plates were read by a multi-plate reader (excitation 355 nm, emission 455 nm, at 0.1 ms emission intervals).

[9] = tested on: human ES cells; assay: Cloning efficiency in conditioned medium (CM); format: cell-based; conditions: CM substituted for TeSR1, otherwise identical treatment
Protocol: as §1

[10] = tested on: ROCK1/ROCK2; conditions: read-out: IC50 ROCK1/ROCK2; competing with ATP; cited from earlier work

| Compound | max. CE (%) ([1]; TeSR1, Matrigel) | IC50 [2] [µM] | IC50 [3] [µM] | IC50 [4] [µM] | confirmation in 6-well assay as active in increasing cloning efficiency [1] | result of small molecule screen (colony formation, ALP fluorescence) [8] | other results |
| --- | --- | --- | --- | --- | --- | --- | --- |
| CC1CNCCN1S(=O)(=O)c1cccc2cnccc12 (centres unmarked) [H-7, 1-(5-isoquinolinesulfonyl)-2-methylpiperazine] | <1 | 6 | 3 | 5.8 | – | – | – |
| O=S(=O)(NCCNC/C=C/c1ccc(Br)cc1)c1cccc2cnccc12 [H-89, N-[2-p-bromo-cinnamylamino)ethyl]-5-isoquinolinesulfonamide dihydrochloride] | 2.5 | 31.7 | – | 0.48 | – | – | – |
| Cc1cncc2cccc(S(=O)(=O)N3CCCNC[C@@H]3C)c12 [H-1152, (S)-(+)-2-methyl-1-[(4-methyl-5-isoquinolinyl)sulfonyl]homopiperazine dihydrochloride] | – | – | – | – | – | – | colony formation by eye compared with HA-100 (at 10 μM) ([5]; concentrations above 500 nM): equal or better than HA-100; working concentration compared with HA-100 ([5]; facilitating clonal growth): ten times lower; concentration showing the most colony formation with the ALP assay [5]: 500 nM |
| O=S(=O)(c1cccc2cnccc12)N1CCNCC1 [HA-100, 1-(5-isoquinolinesulfonyl)piperazine hydrochloride] | 2 | 12 | 8 | 4 | confirmed | hits | effect on cloning efficiency in unconditioned medium [6]: increased cloning efficiency; Oct4 expression in cloned colonies (immunofluorescence) [7]: maintenance of Oct4 expression; effect on cloning efficiency in conditioned medium [9]: increased |
| Cl.N=C(N)NCCNS(=O)(=O)c1cccc2cnccc12 [HA-1004, N-(2-guanidinoethyl)-5-isoquinolinesulfonamide hydrochloride] | <1 | 40 | 2.3 | 1.3 | – | – | CFU+ (concentration range with colony forming units) ([1]; 6-well plates, 10,000 cells per well, TeSR1, Matrigel, colonies counted after 10 days): >50.0 µM |
| Cl.Cl.O=S(=O)(c1cccc2cnccc12)N1CCCNCC1 [HA-1077, 1-(5-isoquinolinesulfonyl)homopiperazine dihydrochloride] | – | – | – | – | – | – | effect on cloning efficiency of human ES cells ([1]; related small molecules tested after HA-100): increased cloning efficiency |
| C[C@@H](N)[C@H]1CC[C@H](C(=O)Nc2ccncc2)CC1 [Y-27632, (+)-(R)-trans-4-(1-aminoethyl)-N-(4-pyridyl)cyclohexanecarboxamide dihydrochloride] | – | – | – | – | – | – | colony formation by eye compared with HA-100 (at 10 μM) ([5]; concentrations above 5 μM): equal or better than HA-100; concentration showing the most colony formation with the ALP assay [5]: 5000 nM; IC50 [10]: 0.8 µM |
| CC1CN(S(=O)(=O)c2cccc3cnccc23)CCN1 (centres unmarked) [iso H-7, 1-(5-isoquinolinesulfonyl)-3-methylpiperazine] | <1 | > 6 | > 3 | > 5.8 | – | – | – |
| CC(C)CCC[C@@H](C)[C@H]1CC[C@H]2C3=CC[C@H]4C[C@@H](O)CC[C@]4(C)[C@H]3CC[C@]12C [lathosterol] | – | – | – | – | only HA-100 could be confirmed | hits | – |
| CC1(C)OC(=O)C=CC2(C)C1CC(O)C1(C)C2CCC2(C)C(c3ccoc3)OC(=O)C3OC321 (centres unmarked) [obacunol] | – | – | – | – | only HA-100 could be confirmed | hits | – |
| quipazine dimaleate | – | – | – | – | only HA-100 could be confirmed | hits | – |
